Measured values reported in patent US20170216277A1, “[…] USE OF […] […] EFFECTS” (TREVI THERAPEUTICS, INC., priority 2016, published 2017).

What was measured:
[1] = oral aqueous solution; fasted conditions, across studies
[2] = Serum sodium, TR01, healthy subjects (Cohort 2); type: in vivo, human
[3] = Overall evaluation of aquaretic effect, TR01; type: in vivo, human
Experimental: (§1) The presence and extent of a possible aquaretic effect was evaluated by measuring urine output (healthy subjects only) and serum sodium as well as blood pressure and heart rate, as markers of potential volume depletion. Urine specific gravity was also analyzed to assess for reduced urine osmolarity (resulting in a decrease in urine specific gravity) due to free water excretion.

[4] = Blood pressure (diastolic and systolic), TR01, healthy subjects
Experimental: (§2) The presence and extent of a possible aquaretic effect was evaluated by measuring urine output (healthy subjects only) and serum sodium as well as blood pressure and heart rate, as markers of potential volume depletion.
(§3) In the dialysis patients, all vital sign measurements and blood samples were collected pre-dialysis. On days of study drug administration, vital signs were measured at 0 (prior to the morning dose), 1.5, 4.5, and 8 hours after the morning dose and 2 hours after the evening meal, coinciding with administration of the PM dose. Blood pressure was also measured at 6 and 10 hours post dinner. On Day −1 (pre-treatment) vital sign measurements were obtained in the morning and evening at approximately the same time that study drug was administered on subsequent treatment days.
(§4) Blood pressure and heart rate were measured at multiple time points on Days −1 through 14 or 17.

[5] = Heart rate, TR01, hemodialysis patients; type: in vivo, human
Experimental: as §2, §3, §4

[6] = Urine output over 24 hours, Phase I trial TR01, healthy subjects (Cohort 2); details: five 24-hour collections, progressively higher doses
Experimental: as §1

[7] = Serum sodium (pre-dialysis), TR01, hemodialysis patients (Cohort 1); type: in vivo, human
[8] = Blood pressure (diastolic and systolic), TR01, hemodialysis patients
Experimental: as §2, §3, §4

[9] = Adverse event reporting of increased urine output, TR01, hemodialysis patients; type: in vivo, human; details: dialysis patients in TR01; urine collection not performed
Excerpt: Based on historical data, the dialysis patients in TR01 had limited to no residual renal function.

[10] = Heart rate, TR01, healthy subjects; type: in vivo, human
Experimental: as §2, §3, §4

For “17-(cyclobutylmethyl)-4,5α-epoxymorphinian-3,6α,14-triol, hydrochloride [nalbuphine]”, the “Median Tmax” value [1] was 30 to 60 min, the “Hypernatremia during nalbuphine treatment” value [2] was “No healthy subject” and the “Trend of rising serum sodium during the treatment period” value [2] was “nor was there a trend of rising serum sodium”. For the same substance, the Aquaretic effect ([3]; dialysis patients, doses up to 240 mg BID) was “no evidence of an aquaretic effect”, the Aquaretic effect ([3]; healthy subjects, doses up to 180 mg BID) was “no evidence of an aquaretic effect” and the “Systolic blood pressure range throughout the study” value [4] was 78-148 mmHg. For the same substance, the “Dose-related reductions in blood pressure” value ([4]; Days −1 through 14) was “no consistent dose-related reductions in blood pressure”, the Hypotension ([4]; throughout the study) was “no subjects or patients developed hypotension” and the “Dose or time-dependent mean heart rate increase” value [5] was “no evidence of a dose or time-dependent mean heart rate increase”. For the same substance, the “Increased urine output related to dose or duration of time on nalbuphine” value [6] was “no evidence of increased urine output”, the “Hypernatremia during nalbuphine treatment” value [7] was “No healthy subject (Table 5) or hemodialysis patient” and the “Trend of rising serum sodium during the treatment period” value [7] was “nor was there a trend of rising serum sodium”. For the same substance, the “Systolic blood pressure range throughout the study” value ([8]; dialysis patients) was 70-199 mmHg, the “Dose-related reductions in blood pressure” value ([8]; hemodialysis patients, Days −1 through 14 or 17) was “no consistent dose-related reductions in blood pressure” and the Hypotension ([8]; hemodialysis patients, throughout the study) was “no subjects or patients developed hypotension”. For the same substance, the “Adverse event of increased urine output” value [9] was “no adverse event of increased urine output was reported” and the “Dose or time-dependent mean heart rate increase” value [10] was “no evidence of a dose or time-dependent mean heart rate increase”.
